Laboratory results: patent US9328369B2, “Process for production of useful substance, and surfactant for use in the process” (priority 2009, dated 2016)

Legend:
Type in all cases: cell-based
[1] = test system: Escherichia coli(δ); test: Production by secretion in microbial culture system, cellulase expressing strain (Table 5); design: key to Turbidity: (measured turbidity of diluted culture − blank) × dilution rate; details: for Dried cell density: obtained from turbidity; for Quantitative value of produced recombinant protein: SDS-PAGE
Protocol: A bglC gene of Bacillus licheniformis was amplified by the PCR method using primers 9 and 10 (Table 4). After being treated with restriction enzymes NcoI and BamHI, a PCR amplified fragment was bound to an NcoI restriction enzyme site and a BamHI restriction enzyme site of a pET-22b plasmid (product of Novagen). Then, the plasmid was transformed into a BL21 (DE3) Escherichia coli strain (product of Novagen) to form Escherichia coli […] that expresses cellulase.
Overnight cultures (1 ml) of Escherichia coli (δ) obtained in Production Example 4 and Escherichia coli (ε) obtained in Production Example 5 were respectively prepared as Comparative Example 2 and Comparative Example 4. An amount of 0.5 ml of each was inoculated in 5 ml of an LB culture solution (containing 100 mg/L of ampicillin) and was shake-cultured at 30° C. for 3 hours. In this manner, pre-culture solutions were prepared. The pre-culture solutions were each inoculated in 50 mL of a culture solution (1.2 g of yeast extract (Nihon Pharmaceutical Co., Ltd.), 0.6 g of polypeptone (Nihon Pharmaceutical Co., Ltd.), 0.47 g of dipotassium phosphate, 0.11 g of monopotassium phosphate, 0.35 g of ammonium sulfate, 0.66 g of disodium phosphate 12-hydrate, 0.02 g of sodium citrate dihydrate, 0.2 g of glycerol, 1.5 g of lactalbumin hydrolysate, 0.3 g of a defoaming agent (Shin-Etsu Chemical Co., Ltd., “KM-70”), 1 mM magnesium sulfate, trace metal solution (18.9 μg of calcium chloride, 500 μg of iron chloride (III), 9.0 μg of zinc sulfate heptahydrate, 5.1 μg of copper sulfate, 6.7 μg of manganese chloride tetrahydrate, 4.9 μg of cobalt chloride, 200 μg of ethylene-diamine-tetraacetic acid tetrasodium salt), 100 mg/L ampicillin). Culturing was initiated with use of a microbial culture system (ABLE Corporation, product name “BioJr. 8”), while the pH value and the temperature were maintained at 6.8 and 30° C. After the culturing was initiated, 0.15 mL of 1M IPTG was added. After 14 hours from the initiation of culturing, instillation of a glycerin/protein solution (50% of glycerin, 50 g/L of lactalbumin hydrolysate, a 33 g/L defoaming agent (Shin-Etsu Chemical Co., Ltd., “KM-70”), 100 mg/L ampicillin) was started. The culturing was terminated after 48 hours from the initiation and the culture solution was recovered. The whole protein in the culture solution was analyzed by SDS-PAGE. Based on the obtained amount of the protein band, the recombinant protein was quantified.
The dried cell density at the termination of the culturing was determined by the following processes (1) to (5):
(§1) The dried cell density was determined by applying the measuring results in the process (5) and the process (1) and the volume (L) of the culture solution used in the process (2) to the following formula: Dried cell density (g/L)=([measuring result in process (5)]−[measuring result in process (1)])/0.1.
Performance of this processes for several times clarified the proportional relationship between the turbidity of the culture solution and the dried cell density. Therefore, the dried cell density was obtained from the measured turbidity in each of Comparative Examples 2 to 4 and Examples 2 to 14.
The turbidity of a culture solution that is same as the culture solution used in the measurement of the dried cell density was measured using a turbidimeter (Shimadzu Corporation, UV-1700) and 1 ml of quarts cell.
For measurement, the culture solution was diluted in saline to have an appropriate absorbance. The absorbance of the same culture solution (but not containing bacteria) diluted at the same dilution as above was set as a blank. The turbidity of the culture solution was calculated by using the following formula: Turbidity of culture solution=[(measured turbidity of diluted culture solution)−(measured turbidity of blank)]×dilution rate.
The dried cell density and the turbidity of the culture solution were plotted to construct a graph in FIG. 3. […]

[2] = test system: Escherichia coli(δ); test: as above; details: SDS-PAGE
[3] = test system: Shewanella putrefaciens; test: Production by secretion in microbial culture system, Shewanella (Table 6); details: surfactant 1 wt %; for Dried cell density: after 48 hours culturing; for Quantitative value of produced recombinant protein: supernatant, protein band around 45 kDa, SDS-PAGE
Protocol: An overnight culture solution (10 ml) of Shewanella putrefaciens was prepared and inoculated in 1 L of a culture solution (10 g of polypeptone (Nihon Pharmaceutical Co., Ltd.), 2 g of yeast extract (Nihon Pharmaceutical Co., Ltd.), 0.5 g of magnesium sulfate heptahydrate, 750 mL of Seawater (Daigo)) and was shake-cultured at 30° C. for 5 hours. In this manner a pre-culture solution was prepared. The pre-culture solution was inoculated in 10 L of a culture solution (200 g of polypeptone (Nihon Pharmaceutical Co., Ltd.), 40 g of yeast extract (Nihon Pharmaceutical Co., Ltd.), 10 g of magnesium sulfate heptahydrate, 7.5 L of Seawater (Daigo)). Culturing thereof was initiated with use of a microbial culture system (ABLE Corporation), while the pH value and the temperature were maintained at 7.3 and 30° C. After 48 hours from the initiation of culturing, the culture solution was recovered and centrifuged. The whole protein of the obtained supernatant fragment was analyzed by SDS-PAGE and the protein band around 45 kDa was quantified.
The dried cell density when the culturing is terminated was determined by the following processes (1) to (5):
as §1, with “assigning” for “applying”
The same processes as in Comparative Example 5 were carried out except that, after culturing in the microbial culture system was initiated, the surfactant A-14 was added to the culture solution in an amount of 1% by weight on the basis of the weight of the culture solution.
The same processes as in Comparative Example 5 were carried out except that, after culturing in the microbial culture system was initiated, the surfactant A-7 was added to the culture solution in an amount of 1% by weight on the basis of the weight of the culture solution.

[4] = Examples 2-11, surfactant 1 wt %, at termination of culturing
[5] = Examples 2-11, surfactant 1 wt %, culturing terminated after 48 hours
[6] = Examples 2-11, surfactant 1 wt %, supernatant of culture solution
[7] = Comparative Example 3, surfactant 1 wt %, added earlier than in Example 2
[8] = Example 13, surfactant 0.1 wt %

Compound	Dried cell density [1, 4]	Turbidity [1, 5]	Quantitative value of produced recombinant protein [2, 6]	Turbidity [1, 7]	Dried cell density [1, 7]	Quantitative value of produced recombinant protein ([1]; Comparative Example 3, surfactant 1 wt %, added earlier than in Example 2, whole protein in culture solution)	Quantitative value of produced recombinant protein [1, 6]	Dried cell density [3]	Quantitative value of produced recombinant protein [3]	Turbidity [1, 8]	Dried cell density [1, 8]	Turbidity ([1]; Example 14, surfactant 5 wt %)	Dried cell density ([1]; Example 14, surfactant 5 wt %)	Quantitative value of produced recombinant protein ([2]; Example 13, surfactant 0.1 wt %, supernatant)	Quantitative value of produced recombinant protein ([2]; Example 14, surfactant 5 wt %, supernatant)
Polyoxyethylene(3 mol)tridecyl ether sodium acetate [A-1]	12.1 g/L	43.2	1.01 g/L												
CCCCCCCCCCCCCCCC[N+](C)(C)C.[Cl-] [A-14, Cetyl trimethyl ammonium chloride]	1.52 g/L	5.43		1.07	0.3 g/L	<0.05 g/L	0.06 g/L	0.23 g/L	<0.01 g/L						
Sodium cocaminopropionate [A-7]	22.1 g/L	78.9	2.24 g/L					2.32 g/L	0.04 g/L						
Cured palm oil fatty acid amidopropyl dimethyl aminoacetate betaine [A-6]	19.7 g/L	70.3	2.35 g/L							75.2	21.1 g/L	52.1	14.6 g/L	1.82 g/L	1.53 g/L
